Measured values from US11414387B2, “Oxoacridinyl acetic acid derivatives and methods of use” (Stingthera, Inc., priority 2017, dated 2022).

Assays:
hSTING-CTD = hSTING-CTD (Homo sapiens (Human), UniProt Q86WV6); assay: Human STING protein FP competition concentration response assay; type: binding
Description: A validated STING ligand, such as c-di-GMP, which is labeled with a read-out signal (e.g., a fluorescence signal such as fluorescein), is mixed with STING-CTD (e.g., mouse STING-CTD or human STING-CTD) with or without the presence of a compound of the present application. Changes in the read-out signal are measured (e.g., by fluorescence anisotropy) to determine the binding of the compound to STING-CTD.
Fluorescein labeled c-di-GMP, a validated STING ligand, was mixed with recombinant hSTING-CTD in a homogenous assay format with or without the presence of a compound of the present application (titrated) in PBS in black 384-well plates (10 μL per well). The fluorescence anisotropy was determined on a PerkinElmer EnVisions multi-mode plate reader. The plate can be read immediately after mixing the reagents or after a few hours without change of signals.
• 1) hSTING (Supplier: HDB) • 2) 2′-Fluo-AHC-c-di GMP (BIOLOG #F009) • 3) 2′3′-cGAMP (BIOLOG #C161) • 4) DMXAA (InvivoGen #tlrl-dmx) • 5) DMSO (Sigma, #D5879-100 mL) • 6) 10×PBS(HDB #MCP-020) • 7) Assay plate, 384-well black plate, solid black bottom (Greiner #784076) • 8) Compound dilution intermediate plate, 384 LDV plate (Labcyte #LP-0200) • 9) Liquid handler, ECHO550 (Labcyte) • 10) Liquid handler, Bravo (Aglient) • 11) Reader, Envision (PerkinElmer) • 12) Centrifuge (Eppendorf) • 13) Multichannel Pipette (Raining) • 14) 10 ml Reservoir (Corning) • 15) 15 ml centrifuge tube (Corning) • 16) Adhesive Plate seals (BioRad) Compound Preparation • a) Containers of each compound were centrifuged at 1000 rpm for 5 min. • b) Compounds were dissolved in DMSO at 30 mM. • c) Compounds were sufficiently vortexed, and centrifuged at 1000 rpm for 1 min. • d) 16 uL of the compound solution was transferred into a LDV Compound Plate. • e) 2-fold serial dilutions of the compound solution were made with DMSO, and 14 concentrations were made in the 384-well LDV Compound Plate. • f) The LDV plate was spun at 1000 rpm for 60 sec and sealed with foil (stored at −20° C. if not used immediately). • g) 335 nL of each compound from the LDV Compound Plate was transferred to Assay Plate (ECHO550). Probe Preparation • a) 200 uM probe stock (2′-Fluo-AHC-c-diGMP) was diluted by ddH2O to 6 uM working concentration. • b) 10-12 uL 6 uM working solution of probe was transferred into the LDV plate. • c) 50 nL per well 6 uM working solution of probe was transferred from the LDV plate to each well of the empty Assay Plate (Greiner 784076) by ECHO550 Buffer mode. • d) Probe final concentration was 30 nM when assay system was 10 uL. • e) The Assay Plate was spun at 1000 rpm for 1 min. Compound Addition • a) After the LDV Compound Plate was prepared, 335 nL compound (ECHO550 DMSO mode) was transferred from the LDV Compound Plate into the Assay Plate (Greiner 784076) containing 50 nL probe in each well according to the Assay Plate layout. • b) DMSO final concentration was 3.35% when assay system was 10 uL. • c) The Assay Plate was spun at 1000 rpm for 1 min. Protein Addition • a) Aliquot of hSTING protein was thawed on ice, briefly to generate uniform solution. • b) 55 uM stock protein was diluted in 1×PBS assay buffer to generate 10 uM final solutions. • c) For test compound and ZPE wells, 10 μL per well of 10 uM protein solutions was added into the Assay Plate containing both the probe and test compounds or DMSO using multichannel pipette. • d) For HPE wells, 10 μL/well of 1×PBS assay buffer instead of protein was added into the Assay Plate containing both the probe and DMSO using multichannel pipette. • e) The Assay Plate was spun at 1000 rpm for Imin. • f) The Assay Plate was incubated at r.t. for 10-20 min.
The EnVision plate reader was used to record the FA value of each well immediately after mixing the reagents or after a few hours without change of signals.
The raw data and calculated data (Fluorescence anisotropy (FA)) was exported from the EnVision reader. […]

mSTING-R232 = mSTING-R232 (Mus musculus, UniProt Q3TBT3); assay: STING differential scanning fluorimetry (DSF) assay, mouse STING; conditions: net shift in melting temperature
Description: A STING DSF assay was performed to determine protein thermostability shift in response to small molecule ligand binding. A STING thermostability shift assay based on differential scanning fluorimetry was used to measure (1) the net shift in melting temperature (ΔTm)between the apo and ligand-bound states of the STING protein and (2) the concentration of the thermal denaturation transition (EC50) as a surrogate measure of binding affinity (K). […] Protein in assay buffer was transferred to a 384 well plate and incubated with the hydrophobic fluorescent dye SYBR Orange. A temperature ramp was applied to the plate and the resulting dye fluorescence was plotted as a function of temperature. The first derivative of this function (dF/dT) was then used to extrapolate the melting temperature of the protein at various concentrations of compound and determine the thermal denaturation profile of a protein/compound complex.
• 1. Protein construct (affinity tag removal vs SUMO-fusion construct) • 2. Protein concentration • 3. Dye concentration • 4. Buffer • 5. Thermal ramp velocity • 6. DMSO tolerance • 7. Compound titration parameters • 8. […] 5 μM purified Target STING Protein • 3. 8 μM Sypro Orange Dye • 4. Buffer: 100 mM NaCl, 30 mM HEPES, pH 7.5 • 5. Thermal Ramp: 0.5° C./min • 6. <1% DMSO • 7. 11 point, 2 fold dilution, duplicate, 300 μM high concentrations • 8.

hSTING-WT = hSTING-WT (Homo sapiens (Human), UniProt Q86WV6, H232R); assay: Radiometric filtration binding competition assay, hSTING-WT
Description: (§1) A radiometric filtration binding competition assay was performed to quantify the binding affinity of compounds of the present application for the human or mouse STING protein, or associated HAQ human isoform. […] The resulting dose response was fit by non-linear regression to determine an IC50 value, from which a Ki value for each compound was extrapolated.
(§2) The resulting complexes were then filtered, dried, and scintillation fluid was added and the remaining radio signal was measured to determine the degree of compound ligand inhibition. This assay format was optimized for both the WT and HAQ isoforms of the human protein and the mouse orthologue protein.
(§3) Probe Concentration: Minimum concentration that achieved max assay window • g. Assay Format: Scintillation Proximity Bead or Filtration Binding Plate • h. […] Assay incubation times for successive incubation steps
(§4) WT-hSWAT: WT_FBA_HIS-SUMO-hSWAT IC50 (μM) (“WT”=Wild-type); HAQ-hSWAT: HAQ_FBA_HIS-SUMO-hSWAT IC50 (μM) (“HAQ”=human HAQ allele of STING protein); and WT-mSWAT: MOUSE_FBA_HIS-SUMO-mnSWAT IC50 (μM) which is the mouse isoform of STING protein.

STING protein = STING protein (Homo sapiens (Human), UniProt Q86WV6, H232R); assay: Cell based reporter assay of IRF activation (IRF-luciferase), THP1-dual-KI R232; conditions: read-out: THP1-dual-KI R232_IRF(Luciferase)_Activity Maximum measured (%)
hSTING-R232 = hSTING-R232 (Homo sapiens (Human), UniProt Q86WV6, H232R); assay: STING differential scanning fluorimetry (DSF) assay, WT human STING; conditions: WT (R232) human STING aa140-379, net shift in melting temperature
mSTING = mSTING (Mus musculus, UniProt Q3TBT3); assay: Radiometric filtration binding competition assay, mSTING
Description: as §1, §2, §3, §4

Sequence of hSTING-CTD (Q86WV6 135-379): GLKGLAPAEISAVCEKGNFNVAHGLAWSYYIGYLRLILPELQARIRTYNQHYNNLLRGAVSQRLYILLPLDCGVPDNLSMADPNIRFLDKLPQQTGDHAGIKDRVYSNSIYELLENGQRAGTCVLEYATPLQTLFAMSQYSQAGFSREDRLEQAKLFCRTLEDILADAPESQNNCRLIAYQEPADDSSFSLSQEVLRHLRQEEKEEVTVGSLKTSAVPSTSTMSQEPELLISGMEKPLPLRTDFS
Sequence of STING protein (Q86WV6 whole entry H232R, the tested form may be a part): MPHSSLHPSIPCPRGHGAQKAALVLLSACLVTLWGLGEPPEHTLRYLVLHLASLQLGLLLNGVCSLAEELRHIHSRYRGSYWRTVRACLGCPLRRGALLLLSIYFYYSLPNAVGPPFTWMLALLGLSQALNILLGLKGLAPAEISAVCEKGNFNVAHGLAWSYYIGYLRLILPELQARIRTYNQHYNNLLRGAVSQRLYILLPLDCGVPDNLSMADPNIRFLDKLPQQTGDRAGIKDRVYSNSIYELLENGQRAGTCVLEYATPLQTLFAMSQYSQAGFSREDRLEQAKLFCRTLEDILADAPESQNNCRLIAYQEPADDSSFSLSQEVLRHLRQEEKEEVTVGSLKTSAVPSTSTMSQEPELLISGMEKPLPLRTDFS
Sequence of hSTING-R232 (Q86WV6 140-379 H232R): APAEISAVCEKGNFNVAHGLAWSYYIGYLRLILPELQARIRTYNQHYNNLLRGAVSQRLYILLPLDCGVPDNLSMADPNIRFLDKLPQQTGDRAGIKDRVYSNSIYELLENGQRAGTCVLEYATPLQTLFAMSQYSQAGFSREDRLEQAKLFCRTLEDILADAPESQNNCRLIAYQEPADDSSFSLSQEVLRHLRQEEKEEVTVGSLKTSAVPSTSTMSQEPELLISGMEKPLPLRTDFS
Sequence of hSTING-WT (Q86WV6 140-379 H232R): as above

Row | SMILES | IC50 (hSTING-CTD) | MOUSE DSF_6xHIS-SUMO Tm Shift (° C.) (mSTING-R232) | IC50 (hSTING-WT) | Emax (STING protein) | WT_DSF_hSWAT Tm Shift (° C.) (hSTING-R232) | IC50 (mSTING)
1 | O=C(O)Cn1c2cc(NC3CCC3)ccc2c(=O)c2ccc(Cl)c(Cl)c21 [Compound 117] | < 100 µM | – | – | – | – | –
2 | O=C(O)Cn1c2cc(C3=CCCCC3)ccc2c(=O)c2ccc(Cl)c(Cl)c21 [Compound 116] | < 100 µM | – | – | – | – | –
3 | Cc1cc2c(=O)c3ccc(Cl)c(Cl)c3n(CC(=O)O)c2cc1N(C)C [Compound 64] | 100 to 500 µM | – | – | – | – | –
4 | COc1ccc2c(=O)c3ccc(Cl)c(Cl)c3n(CC(=O)O)c2c1 [Compound 95] | 100 to 500 µM | – | – | – | – | –
5 | CC(C)Nc1ccc2c(=O)c3ccc(Cl)c(Cl)c3n(CC(=O)O)c2c1 [Compound 119] | < 100 µM | – | – | – | – | –
6 | COc1ccccc1CCc1ccc2c(c1)c(=O)c1ccccc1n2CC(=O)O [Compound 42] | 500 to 1000 µM | – | – | – | – | –
7 | O=C(O)Cn1c2ccccc2c(=O)c2cc(Cl)c(Cl)cc21 [Compound 57] | > 1000 µM | – | – | – | – | –
8 | Cc1cc2c(=O)c3ccc(Cl)c(Cl)c3n(CC(=O)O)c2cc1F [Compound 93] | 500 to 1000 µM | – | – | – | – | –
9 | CCc1cccc2c1c(=O)c1ccc(Cl)c(Cl)c1n2CC(=O)O [Compound 49] | > 1000 µM | – | – | – | – | –
10 | CC1(C)c2ccccc2N(CC(=O)O)c2ccc(Br)cc21 [Compound 86] | 500 to 1000 µM | – | – | – | – | –
11 | Cc1ccc2c(=O)c3cc(CCC4CCCCC4)ccc3n(CC(=O)O)c2c1 [Compound 76] | 100 to 500 µM | – | – | – | – | –
12 | CSc1ccc2c(=O)c3ccc(SC)c(Cl)c3n(CC(=O)O)c2c1 [Compound 46] | > 1000 µM | – | – | – | – | –
13 | O=C(O)Cn1c2ccccc2c(=O)c2ccc(Br)c(Br)c21 [Compound 108] | – | C (“C” = 5-15° C.) | > 300 µM | 5 to 25% | C (“C” = 2-7° C,) | 100 to 300 µM
14 | COc1c(Cl)ccc2c(=O)c3ccc(Nc4cccc5ccccc45)cc3n(CC(=O)O)c12 [Compound 297] | – | D (“D” > 15° C.) | < 20 µM | > 50% | D (“D” > 7° C.) | < 20 µM
15 | COc1c(Cl)ccc2c(=O)c3ccc(Nc4ccccc4Cl)cc3n(CC(=O)O)c12 [Compound 267] | – | D (“D” > 15° C.) | < 20 µM | > 50% | D (“D” > 7° C.) | < 20 µM
16 | CCOc1c(Cl)ccc2c(=O)c3ccc(C(C)C)cc3n(CC(=O)O)c12 [Compound 288] | – | D (“D” > 15° C.) | < 20 µM | > 50% | D (“D” > 7° C.) | < 20 µM

Row | SMILES | IC50 (hSTING-CTD) | MOUSE DSF_6xHIS-SUMO Tm Shift (° C.) (mSTING-R232) | IC50 (hSTING-WT) | Emax (STING protein) | WT_DSF_hSWAT Tm Shift (° C.) (hSTING-R232) | IC50 (mSTING)
17 | COc1c(Cl)ccc2c(=O)c3ccc(NC4CCC4)cc3n(CC(=O)O)c12 [Compound 292] | – | D (“D” > 15° C.) | < 20 µM | > 50% | D (“D” > 7° C.) | < 20 µM
18 | CC(C)c1ccc2c(=O)c3ccc(Cl)c(OC[C@@H](C)O)c3n(CC(=O)O)c2c1 [Compound 327] | – | C (“C” = 5-15° C.) | > 300 µM | < 5% | C (“C” = 2-7° C,) | > 300 µM
19 | CSc1c(Cl)ccc2c(=O)c3ccc(Br)cc3n(CC(=O)O)c12 [Compound 309] | – | C (“C” = 5-15° C.) | 20 to 100 µM | > 50% | D (“D” > 7° C.) | 20 to 100 µM
20 | Cc1ccc2c(=O)c3ccc(Cl)c(-c4ccccc4)c3n(CC(=O)O)c2c1 [Compound 326] | – | D (“D” > 15° C.) | < 20 µM | > 50% | D (“D” > 7° C.) | < 20 µM
21 | COc1c(Cl)ccc2c(=O)c3ccc(-c4ccc(N)cc4)cc3n(CC(=O)O)c12 [Compound 274] | – | D (“D” > 15° C.) | < 20 µM | > 50% | D (“D” > 7° C.) | < 20 µM
22 | CN(C)c1c(Cl)ccc2c(=O)c3ccc(Nc4ccccc4)cc3n(CC(=O)O)c12 [Compound 332] | – | D (“D” > 15° C.) | < 20 µM | > 50% | D (“D” > 7° C.) | < 20 µM
23 | Cc1ccc2c(=O)c3ccc(Cl)c(N(C)C)c3n(CC(=O)O)c2c1 [Compound 308] | – | D (“D” > 15° C.) | < 20 µM | > 50% | D (“D” > 7° C.) | < 20 µM
24 | COc1c(Cl)ccc2c(=O)c3ccc(Nc4ccc(OC(F)(F)F)cc4)cc3n(CC(=O)O)c12 [Compound 266] | – | D (“D” > 15° C.) | < 20 µM | > 50% | D (“D” > 7° C.) | < 20 µM
25 | C=CCOc1c(Cl)ccc2c(=O)c3ccc(C)cc3n(CC(=O)O)c12 [Compound 311] | – | C (“C” = 5-15° C.) | 20 to 100 µM | > 50% | D (“D” > 7° C.) | < 20 µM
26 | COc1c(Cl)ccc2c(=O)c3ccc(C(C)(C)C)cc3n(CC(=O)NS(C)(=O)=O)c12 [Compound 262] | – | D (“D” > 15° C.) | 20 to 100 µM | > 50% | D (“D” > 7° C.) | < 20 µM
27 | COCCOc1c(Cl)ccc2c(=O)c3ccccc3n(CC(=O)O)c12 [Compound 330] | – | B (“B” = 0-5° C.) | > 300 µM | < 5% | B (“B” = 0-2° C.) | > 300 µM
28 | Cc1ccc2c(=O)c3ccc(Cl)c(OCC4CC4)c3n(CC(=O)O)c2c1 [Compound 325] | – | C (“C” = 5-15° C.) | 100 to 300 µM | 25 to 50% | C (“C” = 2-7° C,) | 100 to 300 µM
29 | COc1c(Cl)ccc2c(=O)c3ccc(-c4cccc(O)c4)cc3n(CC(=O)O)c12 [Compound 270] | – | D (“D” > 15° C.) | < 20 µM | > 50% | D (“D” > 7° C.) | < 20 µM
30 | CCOc1c(Cl)ccc2c(=O)c3ccccc3n(CC(=O)O)c12 [Compound 244] | – | C (“C” = 5-15° C.) | 100 to 300 µM | > 50% | D (“D” > 7° C.) | 20 to 100 µM
31 | COc1c(Cl)ccc2c(=O)c3ccc(SC)cc3n(CC(=O)O)c12 [Compound 234] | – | D (“D” > 15° C.) | 20 to 100 µM | > 50% | D (“D” > 7° C.) | < 20 µM
